Measured values reported in patent US20230044787A1, “TRICYCLE DIHYDROIMIDAZOPYRIMIDONE DERIVATIVE, PREPARATION METHOD THEREOF, PHARMACEUTICAL COMPOSITION AND USE THEREOF” (priority 2019, published 2023).

Biological target: T1, Lp-PLA2 (Homo sapiens, UniProt Q13093)
T1 construct: aliquoted and thawed 40 μL of pooled human plasma was previously added; from tissue; host or cells: pooled human plasma
T1 sequence (Q13093 22-441): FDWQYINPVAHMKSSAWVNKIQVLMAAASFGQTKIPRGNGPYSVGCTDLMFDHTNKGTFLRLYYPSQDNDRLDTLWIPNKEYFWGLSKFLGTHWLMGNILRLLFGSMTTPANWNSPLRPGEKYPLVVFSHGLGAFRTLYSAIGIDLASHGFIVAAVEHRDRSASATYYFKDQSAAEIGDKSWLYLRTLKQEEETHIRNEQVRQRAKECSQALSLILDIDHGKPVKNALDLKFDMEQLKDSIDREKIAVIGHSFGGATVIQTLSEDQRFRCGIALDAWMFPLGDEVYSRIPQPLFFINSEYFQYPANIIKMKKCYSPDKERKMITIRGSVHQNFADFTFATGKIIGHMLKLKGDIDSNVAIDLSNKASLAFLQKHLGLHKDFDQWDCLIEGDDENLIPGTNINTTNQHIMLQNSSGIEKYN
Assay: Lipoprotein-associated phospholipase A2 (Lp-PLA2) human plasma assay (Thio-PAF assay)
Format: biochemical
Conditions: Comparison of activity data (I); pooled human plasma, 2-thio-PAF substrate, 30-min pre-incubation
Procedure: Lipoprotein-Associated Phospholipase A2 (Lp-PLA2) Human Plasma Assay
The amount of sulfhydryl groups is continuously determined by the reaction with CPM (7-diethylamino-3-(4′-maleimidophenyl)-4-methylcoumarin), and the CPM is a maleimide of which fluorescence increases after Michael addition of sulfhydryl group. This assay can detect Lp-PLA2 activity in human plasma, as determined by specific inhibition of Lp-PLA2 inhibitors.
Thio-PAF assay was performed as quenched 75 μL assay. Compound source plate was prepared for each compound by preparing 1:3 (by volume) serial dilutions in pure DMSO in a 96-well microplate. The compound on the source plate was diluted 20-fold by transferring 3 μL of the compound from the compound source plate into a 96-well microplate pre-added with 57 μL of assay buffer by Rainin multichannel pipette. The assay buffer described above consisted of 50 mM HEPES, pH 7.4, 150 mM NaCl, 1 mM CHAPS. 1 μL of the 20-fold diluted compound was transferred by Rainin multichannel pipette into a 96-well Greiner 655076 (black) microplate to which aliquoted and thawed 40 μL of pooled human plasma was previously added. The plate was shaken for 20 seconds on a microplate shaker to mix well. After a 30-min pre-incubation at room temperature, 10 μL of substrate solution was added to the 96-well Greiner 655076 (black) microplate by Rainin multichannel pipette, in which the substrate solution contained 2.5 mM 2-thio-PAF [from ethanol stock], 32 μM CPM [from DMSO stock], and 3.2 mM NEM (N-ethylmaleimide) [freshly prepared in DMSO per experiment] in assay buffer consisting of 50 mM HEPES, pH 7.4; 150 mM NaCl; 1 mM CHAPS. After 2 min, the reaction was quenched with […] of 5% trifluoroacetic acid (TFA) in water. The plate was centrifuged at 2000 rpm for 1 minute. The plate was read at ex:380/em:485 using a Biotek Synergy H1 (H1MF) microplate reader. IC50 data, curves and QC analysis were performed using GraphPad Prism 6.0 and Excel.

Row | IC50 | SMILES
1 | 63.3 nM | O=c1nc(OCc2cc(F)c(F)c(F)c2)cc2n1CC1COCCN21 (racemic) [Corresponding racemate of Example 123 in WO2016011930A1, reference compound]

Same assay, conditions: Lp-PLA2 human plasma assay (Thio-PAF), pooled human plasma, 30-min pre-incubation at room temperature

Row | SMILES | IC50
2 | CCC12CCCN1c1cc(OCc3cc(F)c(Oc4ccnc(C(F)(F)F)c4)c(F)c3)nc(=O)n1C2 (centres unmarked) [Example 63, 3-((3,5-difluoro-4-((2-(trifluoromethyl)pyridin-4-yl)oxy)benzyl)oxy)-8a-ethyl-7,8,8a,9-tetrahydro-1H,6H-pyrrolo[1′,2′:3,4]imidazo [1,2-c]pyrimidin-1-one] | 8.7 nM
3 | N#Cc1cc(COc2cc3n(c(=O)n2)C[C@]24CO[C@H](CN32)C4)ccc1Oc1ccc(Cl)c(F)c1 [Example 20] | 6.8 nM
4 | O=c1nc(OCc2cc(F)c(F)c(F)c2)cc2n1C[C@]13CO[C@H](CN21)C3 [Example 24, (3S,11aR)-7-((3,4,5-trifluorobenzyl)oxy)-3,4-dihydro-1H,9H,11H-3,11a-methanopyrimido[6′,1′:2,3] imidazo[5,1-c][1,4]oxazin-9-one] | 13.2 nM
5 | O=c1nc(OCc2ccc(Oc3cccc(C(F)(F)F)c3)c(F)c2)cc2n1CC13CC(CN21)C3 [Example 124, 3-((3-fluoro-4-(3-(trifluoromethyl)phenoxy)benzyl)oxy)-7,8-dihydro-1H,6H,9H-7,8a-methanopyrrolo[1′,2′:3,4] imidazo[1,2-c]pyrimidin-1-one] | 6.1 nM
6 | O=c1nc(OCCc2ccc(Oc3cccc(C(F)(F)F)c3)cc2)cc2n1CC13CC(CN21)C3 [Example 133, 3-(4-(3-(trifluoromethyl)phenoxy)phenethoxy)-7,8-dihydro-1H,6H,9H-7,8a-methanopyrrolo[1′,2′:3,4] imidazo[1,2-c]pyrimidin-1-one] | 36.6 nM
7 | N#Cc1cc(Oc2ccc(COc3cc4n(c(=O)n3)CC35CC(CN43)C5)cc2F)cc(C(F)(F)F)c1 [Example 95] | 7.4 nM
8 | O=c1nc(OCCc2ccc(Oc3ccnc(C(F)(F)F)c3)cc2)cc2n1C[C@]13CO[C@H](CN21)C3 [Example 100, (3S,11aR)-7-(4-(2-(trifluoromethyl)pyridin-4-yloxy)phenethoxy)-3,4-dihydro-1H,9H,11H-3,11a-methanopyrimido[6′-,1′:2,3] imidazo[5,1-c][1,4]oxazin-9-one] | 5.9 nM
9 | N#Cc1cc(F)cc(COc2cc3n(c(=O)n2)CC24CC(F)(CN32)C4)c1 [Example 159] | 128 nM
10 | O=c1nc(OCc2ccc(Oc3cccc(C(F)(F)F)c3)c(F)c2)cc2n1C[C@]13CO[C@H](CN21)C3 [Example 192] | 6.3 nM
11 | COc1c(OCc2ccc(F)c(F)c2)nc(=O)n2c1N1C[C@@H]3C[C@]1(CO3)C2 [Example 115, (3S,11aR)-7-((3,4-difluorobenzyl)oxy)-6-methoxy-3,4-dihydro-1H,9H,11H-3,11a-methanopyrimido[6′,1′:2,3] imidazo[5,1-c][1,4]oxazin-9-one] | 5.2 nM
12 | O=c1nc(OCc2ccc(Oc3ccnc(C(F)(F)F)c3)c(F)c2)cc2n1C[C@@]13C[C@@H](CN21)N(C1CCC1)C3 [Example 177, (3S,11aS)-2-cyclobutyl-7-((3-fluoro-4-((2-(trifluoromethyl)pyridin-4-yl)oxy)benzyl)oxy)-1,2,3,4-tetrahydro-9H,11H-3,11a-methano-pyrazino[l′,2′:3,4]imidazo[1,2-c]pyrimidin-9-one] | 5.5 nM
13 | O=c1nc(OCc2cc(F)c(Oc3cnc(C(F)(F)F)nc3)c(F)c2)cc2n1CC13CC(CN21)C3 [Example 39, 3-((3,5-difluoro-4-((2-(trifluoromethyl)pyrimidin-5-yl)oxy)benzyl)oxy)-7,8-dihydro-1H,6H,9H-7,8a-methanopyrrolo[1′,2′:3,4] imidazo[1,2-c]pyrimidin-1-one] | 13.8 nM
14 | COc1c(OCCc2ccc(Oc3cccc(C(F)(F)F)c3)cc2)nc(=O)n2c1N1CC3CC1(C3)C2 [Example 184, 4-methoxy-3-(4-(3-(trifluoromethyl)phenoxy)phenethoxy)-7,8-dihydro-1H,6H,9H-7,8a-methanopyrrolo[1′,2′:3,4]imidazo[1,2-c] pyrimidin-1-one] | 23.8 nM
15 | O=c1nc(OCCc2ccc(Oc3cccc(C(F)(F)F)c3)cc2)cc2n1C[C@]13CO[C@H](CN21)C3 [Example 132, (3S,11aR)-7-(4-(3-(trifluoromethyl)phenoxy)phenethoxy)-3,4-dihydro-1H,9H,11H-3,11a-methanopyrimido[6′,1′:2,3] imidazo[5,1-c][1,4]oxazin-9-one] | 5.9 nM
16 | N#Cc1cc(Oc2ccc(COc3cc4n(c(=O)n3)C[C@@]35CO[C@@H](CN43)C5)cc2F)cc(C(F)(F)F)c1 [Example 31] | 7.1 nM

The next lines start with the values.

Row | IC50 | SMILES
17 | 3 nM | O=c1nc(OCc2ccc(Oc3ccc(Cl)c(C(F)(F)F)c3)c(F)c2)cc2n1CC13CC(CN21)C3 [Example 125, 3-((3-fluoro-4-(4-chloro-3-(trifluoromethyl)phenoxy)benzyl)oxy)-7,8-dihydro-1H,6H,9H-7,8a-methanopyrrolo[1′,2′:3,4] imidazo[1,2-c]pyrimidin-1-one]
18 | 2.6 nM | O=c1nc(OCc2ccc(Oc3ccnc(C(F)(F)F)c3)c(F)c2)cc2n1CC13CC(C(F)F)(CN21)C3 [Example 139, 7-(difluoromethyl)-3-((3-fluoro-4-((2-(trifluoromethyl)pyridin-4-yl)oxy)benzyl)oxy)-7,8-dihydro-1H,6H,9H-7,8a-methanopyrrolo[1′,2′:3,4] imidazo[1,2-c]pyrimidin-1-one]
19 | 5.2 nM | N#Cc1cc(COc2cc3n(c(=O)n2)C[C@]24CO[C@H](CN32)C4)ccc1F [Example 193]
20 | 3.4 nM | O=c1nc(OCc2ccc(Oc3ccnc(C(F)(F)F)c3)c(F)c2)cc2n1C[C@@]13C[C@@H](CN21)N(CC(F)(F)F)C3 [Example 173]
21 | 5.2 nM | O=c1nc(OCc2cc(F)c(Oc3ccnc(C(F)(F)F)c3)c(F)c2)c(F)c2n1C[C@]13CO[C@H](CN21)C3 [Example 88, (3S,11aR)-7-((3,5-difluoro-4-((2-(trifluoromethyl)pyridin-4-yl)oxy)benzyl)oxy)-6-fluoro-3,4-dihydro-1H,9H,11H-3,11a-methanopyrimido[6′,1′:2,3] imidazo[5,1-c][1,4]oxazin-9-one]
22 | 4.4 nM | CC(C)(O)C12CN3c4cc(OCc5ccc(Oc6ccnc(C(F)(F)F)c6)c(F)c5)nc(=O)n4CC3(C1)C2 [Example 201, 3-((3-Fluoro-4-((2-trifluoromethylpyridin-4-yl)oxy)benzyl)oxy)-7-(2-hydroxypropyl-2-yl)-7,8-dihydro-1H,6H,9H-7,8a-methanopyrrolo[1′, 2′:3, 4]imidazo[1,2-c]pyrimidin-1-one]
23 | 2.9 nM | Cn1ccc(CN2C(=O)[C@]34C[C@H]2CN3c2cc(OCc3ccc(Oc5ccnc(C(F)(F)F)c5)c(F)c3)nc(=O)n2C4)n1 [Example 197, (3S,11aR)-7-((3-fluoro-4-((2-(trifluoromethyl)pyridin-4-yl)oxy)benzyl)oxy)-2-((1-methyl-1H-pyrazol-3-yl)methyl)-3,4-dihydro-9H, 11H-3,11a-methanopyrazino[1′2′:3,4]imidazo [1,2-c]pyrimidin-1,9(2H)-dione]
24 | 4.2 nM | O=c1nc(OCc2cc(F)c(Oc3ccnc(OC(F)(F)F)c3)c(F)c2)cc2n1C[C@]13CO[C@H](CN21)C3 [Example 5, (3S,11aR)-7-((3,5-difluoro-4-((2-(trifluoromethoxy)pyridin-4-yl)oxy)benzyl)oxy)-3,4-dihydro-1H,9H,11H-3,11a-methanopyrimido[6′,1′:2,3] imidazo[5,1-c][1,4]oxazin-9-one]
25 | 2.5 nM | O=c1nc(OCc2cc(F)c(Oc3ccc(Cl)c(F)c3)c(F)c2)cc2n1C[C@]13CO[C@H](CN21)C3 [Example 143]
26 | 4.4 nM | N#CC12CN3c4cc(OCc5ccc(Oc6ccnc(C(F)(F)F)c6)c(F)c5)nc(=O)n4CC3(C1)C2 [Example 200, 3-((3-fluoro-4-((2-(trifluoromethyl)pyridin-4-yl)oxy)benzyl)oxy)-1-oxo-1H,6H,9H-7,8a-methanopyrrolo[1′,2′:3,4]imidazo[1,2-c] pyrimidine-7(8H)-carbonitrile]
